Species on record: Rattus norvegicus
Test: DrugMatrix - Regimen: Daily Repeat
Assay type: toxicity, organism-based, Sprague-Dawley
Set-up: regimen Daily Repeat, gender Male, age 6-8 weeks
Conditions: in vivo, po, route oral GAVAGE, vehicle 100 % WATER; for ABSOLUTE BASOPHIL / ABSOLUTE EOSINOPHIL / ABSOLUTE LYMPHOCYTE / ABSOLUTE MONOCYTE / ABSOLUTE SEGMENTED NEUTROPHIL / BASOPHIL / EOSINOPHIL / ERYTHROCYTE COUNT / HEMATOCRIT / HEMOGLOBIN / LEUKOCYTE COUNT / LYMPHOCYTE / MEAN CORPUSCULAR HEMOGLOBIN / MEAN CORPUSCULAR HEMOGLOBIN CONCENTRATION / MEAN CORPUSCULAR VOLUME / MONOCYTE / NEUTROPHIL / NUCLEATED RED BLOOD CELLS / PLATELET COUNT: tissue Blood; for ALANINE AMINOTRANSFERASE / ALBUMIN / ALKALINE PHOSPHATASE / ASPARTATE AMINOTRANSFERASE / BLOOD UREA NITROGEN / CARBON DIOXIDE / CHLORIDE / CHOLESTEROL / CREATINE PHOSPHOKINASE / CREATININE / GLUCOSE / LACTATE DEHYDROGENASE / LIPASE / PHOSPHORUS / POTASSIUM / SODIUM / TOTAL BILIRUBIN / TOTAL PROTEIN / URIC ACID: tissue Plasma
[1] = 28 mg/kg, 120 h, dose level Low, time 5 day
[2] = 1500 mg/kg, 72 h, dose level High, time 3 day
[3] = 1500 mg/kg, 120 h, dose level High, time 5 day

CS(=O)(=O)c1ccc([C@@H](O)[C@@H](CO)NC(=O)C(Cl)Cl)cc1 [THIAMPHENICOL]
ABSOLUTE BASOPHIL [1]: 0 CELLS/uL
ABSOLUTE EOSINOPHIL [1]: 95.33 CELLS/uL
ABSOLUTE LYMPHOCYTE [1]: 6576.67 CELLS/uL
ABSOLUTE MONOCYTE [1]: 0 CELLS/uL
ABSOLUTE SEGMENTED NEUTROPHIL [1]: 828 CELLS/uL
BASOPHIL [1]: 0%
EOSINOPHIL [1]: 1.33%
ERYTHROCYTE COUNT [1]: 5.62 x10E6/uL
HEMATOCRIT [1]: 36.03%
HEMOGLOBIN [1]: 13.5 G/DL
LEUKOCYTE COUNT [1]: 7.5 x10E3/uL
LYMPHOCYTE [1]: 87.67%
MEAN CORPUSCULAR HEMOGLOBIN [1]: 24.03 pg
MEAN CORPUSCULAR HEMOGLOBIN CONCENTRATION [1]: 37.47 G/DL
MEAN CORPUSCULAR VOLUME [1]: 64.07 fL
MONOCYTE [1]: 0%
NEUTROPHIL [1]: 11%
NUCLEATED RED BLOOD CELLS [1]: 0 /100WBC
PLATELET COUNT [1]: 1264 x10E3/uL
ALANINE AMINOTRANSFERASE [1]: 51 u/L
ALBUMIN [1]: 4.33 G/DL
ALKALINE PHOSPHATASE [1]: 379.67 u/L
ASPARTATE AMINOTRANSFERASE [1]: 78 u/L
BLOOD UREA NITROGEN [1]: 15 mg/dL
CARBON DIOXIDE [1]: 28 mmol/L
CHLORIDE [1]: 101 MEQ/L
CHOLESTEROL [1]: 82.67 mg/dL
CREATINE PHOSPHOKINASE [1]: 219 u/L
CREATININE [1]: 0.19 mg/dL
GLUCOSE [1]: 146.67 mg/dL
LACTATE DEHYDROGENASE [1]: 121 u/L
LIPASE [1]: 8.33 u/L
PHOSPHORUS [1]: 12.2 mg/dL
POTASSIUM [1]: 5.86 MEQ/L
SODIUM [1]: 148.13 MEQ/L
TOTAL BILIRUBIN [1]: 0.23 mg/dL
TOTAL PROTEIN [1]: 6.37 G/DL
URIC ACID [1]: 1.07 mg/dL
ABSOLUTE BASOPHIL [2]: 0 CELLS/uL
ABSOLUTE EOSINOPHIL [2]: 242.33 CELLS/uL
ABSOLUTE LYMPHOCYTE [2]: 11370.67 CELLS/uL
ABSOLUTE MONOCYTE [2]: 0 CELLS/uL
ABSOLUTE SEGMENTED NEUTROPHIL [2]: 1353.67 CELLS/uL
BASOPHIL [2]: 0%
EOSINOPHIL [2]: 1.67%
ERYTHROCYTE COUNT [2]: 4.88 x10E6/uL
HEMATOCRIT [2]: 32.03%
HEMOGLOBIN [2]: 12.37 G/DL
LEUKOCYTE COUNT [2]: 12.97 x10E3/uL
LYMPHOCYTE [2]: 87.67%
MEAN CORPUSCULAR HEMOGLOBIN [2]: 25.37 pg
MEAN CORPUSCULAR HEMOGLOBIN CONCENTRATION [2]: 38.6 G/DL
MEAN CORPUSCULAR VOLUME [2]: 65.7 fL
MONOCYTE [2]: 0%
NEUTROPHIL [2]: 10.67%
NUCLEATED RED BLOOD CELLS [2]: 0 /100WBC
PLATELET COUNT [2]: 1202.33 x10E3/uL
ALANINE AMINOTRANSFERASE [2]: 42.67 u/L
ALBUMIN [2]: 4.27 G/DL
ALKALINE PHOSPHATASE [2]: 298 u/L
ASPARTATE AMINOTRANSFERASE [2]: 82 u/L
BLOOD UREA NITROGEN [2]: 18 mg/dL
CARBON DIOXIDE [2]: 24.33 mmol/L
CHLORIDE [2]: 110.67 MEQ/L
CHOLESTEROL [2]: 82.67 mg/dL
CREATINE PHOSPHOKINASE [2]: 343.67 u/L
CREATININE [2]: 0.16 mg/dL
GLUCOSE [2]: 201 mg/dL
LACTATE DEHYDROGENASE [2]: 99 u/L
LIPASE [2]: 8.33 u/L
PHOSPHORUS [2]: 12 mg/dL
POTASSIUM [2]: 5.55 MEQ/L
SODIUM [2]: 148.1 MEQ/L
TOTAL BILIRUBIN [2]: 0.1 mg/dL
TOTAL PROTEIN [2]: 5.8 G/DL
URIC ACID [2]: 2.17 mg/dL
ABSOLUTE BASOPHIL [3]: 0 CELLS/uL
ABSOLUTE EOSINOPHIL [3]: 0 CELLS/uL
ABSOLUTE LYMPHOCYTE [3]: 10293 CELLS/uL
ABSOLUTE MONOCYTE [3]: 39 CELLS/uL
ABSOLUTE SEGMENTED NEUTROPHIL [3]: 901.33 CELLS/uL
BASOPHIL [3]: 0%
EOSINOPHIL [3]: 0%
ERYTHROCYTE COUNT [3]: 5.44 x10E6/uL
HEMATOCRIT [3]: 34.1%
HEMOGLOBIN [3]: 13.07 G/DL
LEUKOCYTE COUNT [3]: 11.23 x10E3/uL
LYMPHOCYTE [3]: 91.67%
MEAN CORPUSCULAR HEMOGLOBIN [3]: 24.03 pg
MEAN CORPUSCULAR HEMOGLOBIN CONCENTRATION [3]: 38.33 G/DL
MEAN CORPUSCULAR VOLUME [3]: 62.67 fL
MONOCYTE [3]: 0.33%
NEUTROPHIL [3]: 8%
NUCLEATED RED BLOOD CELLS [3]: 0 /100WBC
PLATELET COUNT [3]: 1190 x10E3/uL
ALANINE AMINOTRANSFERASE [3]: 44.33 u/L
ALBUMIN [3]: 4.33 G/DL
ALKALINE PHOSPHATASE [3]: 313.67 u/L
ASPARTATE AMINOTRANSFERASE [3]: 87 u/L
BLOOD UREA NITROGEN [3]: 21.33 mg/dL
CARBON DIOXIDE [3]: 24.33 mmol/L
CHLORIDE [3]: 103 MEQ/L
CHOLESTEROL [3]: 75.67 mg/dL
CREATINE PHOSPHOKINASE [3]: 564.67 u/L
CREATININE [3]: 0.21 mg/dL
GLUCOSE [3]: 159 mg/dL
LACTATE DEHYDROGENASE [3]: 210 u/L
LIPASE [3]: 8.33 u/L
PHOSPHORUS [3]: 11.87 mg/dL
POTASSIUM [3]: 6.38 MEQ/L
SODIUM [3]: 144.57 MEQ/L
TOTAL BILIRUBIN [3]: 0.13 mg/dL
TOTAL PROTEIN [3]: 5.97 G/DL
URIC ACID [3]: 1.67 mg/dL

Source: ChEMBL document CHEMBL3885881, “DrugMatrix”
